# Measured values: patent US20060069038A1, “Irreversible caspase-3 inhibitors as active site probes” (priority 2003, published 2006)
# What was measured:
# [1] = molecular target: T1, caspase-3 (Homo sapiens, UniProt P42574); experiment: Caspase-3 western blot on camptothecin-treated Jurkat cell extracts; assay type: cell-based; conditions: camptothecin-treated Jurkat cells, FIG. 4
# T1 construct: endogenous in cells; host or cells: Jurkat cells, apoptosis induced with camptothecin
# T1 sequence (P42574 29-175 limits assumed): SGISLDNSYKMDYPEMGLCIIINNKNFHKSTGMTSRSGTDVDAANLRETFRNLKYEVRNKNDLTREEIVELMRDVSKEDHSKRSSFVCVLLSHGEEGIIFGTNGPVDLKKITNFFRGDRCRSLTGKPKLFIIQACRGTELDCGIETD
# T1 sequence (P42574 176-277 limits assumed): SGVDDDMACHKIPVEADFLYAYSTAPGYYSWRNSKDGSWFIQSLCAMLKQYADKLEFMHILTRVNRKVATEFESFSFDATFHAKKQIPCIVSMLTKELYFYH
# Method: (§1) Jurkat cells (ATCC # TEB-152) were maintained in RPMI1640 supplemented with 10% FBS, 2 mM L-glutamine and antibiotics (penicillin and streptamycin). Apoptosis was induced on cells (1 million cells/ml) that had been starved for 36 hours in CytoSf4 media (Kemp technologies) by addition of camptothecin (Sigma; 3 μg/ml). NT2 cells (ATCC 3813555) were cultured in DMEM+10% FBS+2 mM L-glutamine and antibiotics. Apoptosis induced with camptothecin (5 μg/ml) in culture media.
# Denatured protein extracts in 1× Laemli buffer were resolved through a 18% acrylamide gradient SDS-PAGE gel (Invitrogen) at 30 mA in Tris-Glycine buffer. Samples labeled with [^125I]-M808 were migrated until the dye front reached 0.5 cm above the end of the gel, and acrylamide 1 cm above the dye front was cut out to remove all free [^125I]-M808 and reduce background. The gels were fixed for 45 minutes in a 40% Methanol-10% Acetic acid solution and dried for 90 min at 80° C. before exposure on MS Kodak film with MS intensifying screens. For Western blotting, proteins were transferred onto a […] nitrocellulose membrane (Invitrogen) in Tris-Glycine-20% methanol buffer at 40V for 2 hours. Non-specific protein binding was minimized by incubating the membranes for 1 hour in blocking buffer (5% non-fat milk/TBS/0.1% Tween-20). […] Densitometry was performed using a BioRad instrument and QuantityOne software. […]
# [2] = tested on: spectrin cleavage; experiment: Spectrin cleavage in cultured thymocytes; assay type: cell-based; conditions: Rattus norvegicus, Thymocyte, N. Methot et al., in press, read-out: IC50, inhibition of spectrin cleavage
# [3] = molecular target: T1, caspase-3; experiment: [125I]-M808 labeling of caspase subunits in apoptotic Jurkat cells with caspase inhibitor; assay type: cell-based; conditions: increasing inhibitor concentration, FIG. 4
# Method: as §1
# (§2) The determination of caspase activity by [^125I]-M808 labeling was performed by pre-incubating purified recombinant human caspase-3 with indicated amounts of caspase inhibitor (M791) or vehicle (DMSO), for 1 hour at 25° C. in ICE buffer III (50 mM Hepes-KOH pH 7.0, 0.1% CHAPS, 10% sucrose, 2 mM EDTA), supplemented with 5 mM DTT. [^125I]-M808 was added to a final concentration of 1.25 μM and incubated for 5 min at 25° C. Active caspases in tissue or cell extracts were labeled by incubating 60-80 μg of lysate with [^125I]-M808 for 15 minutes at 25° C. Labeling was stopped by addition of Laemli buffer (2% SDS; 0.35 M O-mercaptoethanol; 50 mM Tris-Cl pH 6.8; 10% glycerol; 0.05% bromophenol blue) and by heating at 95° C. for 5 minutes. Caspase labeling in whole cells was performed as following. NT2 cells were plated in 24-well dishes (50 000 cells/well) in DMEM+10% FBS. […]
# [4] = molecular target: T2, purified recombinant human caspase-3 (Homo sapiens, UniProt P42574); experiment: Direct [125I]-M808 labeling of purified recombinant human caspase-3; assay type: binding; conditions: FIG. 2A lane 1
# T2 construct: Active site shared between large and small caspase subunit
# T2 sequence (P42574 29-175 limits assumed): T1 sequence (P42574 29-175 limits assumed)
# T2 sequence (P42574 176-277 limits assumed): T1 sequence (P42574 176-277 limits assumed)
# Method: as §2, with “FBS. The next day, media was replaced by media containing camptothecin (5 μg/ml) and the indicated amounts of caspase inhibitors. The culture media was removed after 5 hours of incubation and replaced by 100 μl of fresh media containing 12.5 nM [^125]-M808. After a 1 h incubation at 37° C., the media was removed, the cells were washed once with PBS and lysed in lysis buffer+25 μM M808. Cellular debris was removed by centrifugation at 13000 rpm for 10 min and boiled at 95° C. in Laemli buffer.” for “FBS.”
smiles,measurement,setting,value
"COc1ccc(-c2nc(C)no2)cc1CC(=O)N[C@H](C(=O)N[C@@H](CC(=O)O)C(=O)CSCc1ccccc1)C(C)C [Example M791, (3S)-5-(benzylthio)-3-[(N-{[2-methoxy-5-(3-methyl-1,2,4-oxadiazol-5-yl)phenyl]acetyl}-L-valyl)amino]4-oxopentanoic acid]",effect on caspase-3 processing (western blot),[1],prevents the auto-processing of p20 caspase 3 into p19 and p17
"CCCCCN(C)CC(=O)[C@H](CC(=O)O)NC(=O)[C@H](CC)n1cc(C(C)(C)C)nc(NCc2nonc2C)c1=O [Example M867, (3S)-3-({(2S)-2-[5-tert-butyl-3-{[(4-methyl-1,2,5-oxadiazol-3-yl)methyl]amino}-2-oxopyrazin-1(2H)-yl]butanoyl}amino)-5-[methyl(pentyl)amino]-4-oxopentanoic acid]",IC50,[2],90 nM
same,intensity of [125I]-M808-labeled caspase-3 bands (occupancy),[3],intensity of the radiolabeled bands decreased as the concentration of M867 increased
"COc1ccc(I)cc1CC(=O)N[C@H](C(=O)NC(CC(=O)O)C(=O)CF)C(C)C (stereo partly drawn) [[^125I]-M808, 5-fluoro-3-({N-[(5-iodo-2-methoxyphenyl)acetyl]-L-valyl}amino)-4-oxopentanoic acid]",labeling of p17 subunit of caspase-3,[4],covalently bound
